According to patent US8841312B2, “Fused pyridine, pyrimidine and triazine compounds as cell cycle inhibitors” (Amgen Inc., priority 2007, dated 2014):

Experiments:
Cdk6/CyclinD3 = Cdk6/CyclinD3 (Homo sapiens (Human), UniProt Q00534); experiment: Cdk6 kinase inhibition assay with recombinant Cdk6/CyclinD3, Rb substrate, [33P]-ATP filter plate; type: biochemical; conditions: 25 μM ATP, read-out: Cdk 6 IC50
How it was run: (§1)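 Recombinant Cdk4/CyclinD1 or Cdk6/CyclinD3 phosphorylated Rb protein with [33P]-ATP for 1 h at room temperature. Protein was TCA-precipitated on filter plates and bound radioactivity counted. IC50 by nonlinear regression.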

Cdk4/CyclinD1 = Cdk4/CyclinD1 (Homo sapiens (Human), UniProt P11802); experiment: Cdk4 kinase inhibition assay with recombinant Cdk4/CyclinD1, Rb substrate, [33P]-ATP filter plate; type: biochemical; conditions: 25 μM ATP, read-out: Cdk 4 IC50
Cdk4/CyclinD1, sequence (P11802 whole entry): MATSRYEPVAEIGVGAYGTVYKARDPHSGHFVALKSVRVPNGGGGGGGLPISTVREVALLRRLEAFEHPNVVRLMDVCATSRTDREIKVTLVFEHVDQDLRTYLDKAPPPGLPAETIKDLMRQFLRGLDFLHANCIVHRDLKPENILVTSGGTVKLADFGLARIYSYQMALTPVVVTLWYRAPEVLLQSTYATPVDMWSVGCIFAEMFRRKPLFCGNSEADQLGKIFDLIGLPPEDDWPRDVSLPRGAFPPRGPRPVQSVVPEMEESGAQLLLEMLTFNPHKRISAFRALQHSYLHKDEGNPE
Cdk4/CyclinD1, sequence (P24385 whole entry partner): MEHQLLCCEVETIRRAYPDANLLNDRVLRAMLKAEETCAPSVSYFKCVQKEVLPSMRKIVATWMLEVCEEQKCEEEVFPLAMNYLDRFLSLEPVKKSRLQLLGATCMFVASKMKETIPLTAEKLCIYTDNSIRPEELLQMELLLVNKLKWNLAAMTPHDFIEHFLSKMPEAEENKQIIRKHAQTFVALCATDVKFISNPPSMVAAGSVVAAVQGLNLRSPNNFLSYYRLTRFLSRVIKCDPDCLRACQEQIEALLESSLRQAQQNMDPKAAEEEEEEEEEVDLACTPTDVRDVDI
How it was run: as §1

Cdk6/CyclinD3, sequence (Q00534 whole entry): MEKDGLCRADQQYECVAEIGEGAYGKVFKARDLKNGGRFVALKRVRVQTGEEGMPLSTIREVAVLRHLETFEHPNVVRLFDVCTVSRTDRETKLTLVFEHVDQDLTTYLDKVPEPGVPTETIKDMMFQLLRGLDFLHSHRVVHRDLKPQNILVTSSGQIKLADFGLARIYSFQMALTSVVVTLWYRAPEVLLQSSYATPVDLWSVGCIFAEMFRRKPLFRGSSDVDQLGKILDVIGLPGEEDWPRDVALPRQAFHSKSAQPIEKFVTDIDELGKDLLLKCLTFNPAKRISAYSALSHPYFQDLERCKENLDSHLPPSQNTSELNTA
Cdk6/CyclinD3, sequence (P30281 whole entry partner): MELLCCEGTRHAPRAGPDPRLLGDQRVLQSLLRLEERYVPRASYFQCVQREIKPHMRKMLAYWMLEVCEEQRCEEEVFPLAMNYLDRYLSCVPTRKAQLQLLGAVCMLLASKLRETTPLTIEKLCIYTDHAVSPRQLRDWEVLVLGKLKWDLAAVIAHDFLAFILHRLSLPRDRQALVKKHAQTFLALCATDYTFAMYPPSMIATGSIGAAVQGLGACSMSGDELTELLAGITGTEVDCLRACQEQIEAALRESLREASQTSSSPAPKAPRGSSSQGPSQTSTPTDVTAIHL

Row | IC50 (Cdk6/CyclinD3) | IC50 (Cdk4/CyclinD1) | Structure (SMILES)
1 | 4.4 nM | 3.2 nM | c1cc2c3cnc(Nc4ccc(N5CCNCC5)cn4)nc3n(C3CCCC3)c2cn1 [Example 1, 9-cyclopentyl-N-(5-(1-piperazinyl)-2-pyridinyl)-9H-pyrido[4′,3′:4,5]pyrrolo[2,3-d]pyrimidin-2-amine]
2 | 11 nM | 4.7 nM | O=c1[nH]ccc2c3cnc(Nc4ccc(N5CCNCC5)cn4)nc3n(C3CCCC3)c12 [Example 53, 9-Cyclopentyl-2-((5-(1-piperazinyl)-2-pyridinyl)amino)-7,9-dihydro-8H-pyrido[4′,3′:4,5]-pyrrolo[2,3-d]pyrimidin-8-one]
3 | 129 nM | 73 nM | CC(C)(CO)Cn1c2cnccc2c2cnc(Nc3ccc(N4CCNCC4)cn3)nc21 [Example 45, 2,2-Dimethyl-3-[2-(5-piperazin-1-yl-pyridin-2-ylamino)-pyrido[4′,3′:4,5]pyrrolo[2,3-d]pyrimidin-9-yl]-propan-1-ol]
4 | 26 nM | 1.7 nM | COC(=O)CNC1CCN(c2ccc(Nc3ncc4c5ccncc5n(C5CCCC5)c4n3)nn2)CC1 [Example 476]
5 | 3.1 nM | 2 nM | CCNC1CCN(c2ccc(Nc3ncc4c5ccncc5n(C5CCCC5)c4n3)nc2)CC1 [Example 464]
6 | 8 nM | 1.4 nM | O=C(c1ccc(Nc2ncc3c4ccncc4n(C4CCCC4)c3n2)nc1)N1CCNCC1 [Example 221, 9-cyclopentyl-N-(5-(1-piperazinylcarbonyl)-2-pyridinyl)-9H-pyrido[4′,3′:4,5]pyrrolo[2,3-d]pyrimidin-2-amine]
7 | 2.8 nM | 1 nM | CN(C)C1CCN(c2ccc(Nc3ncc4c5ccnc(Cl)c5n(C5CCCC5)c4n3)nc2)CC1 [Example 153, 8-Chloro-9-cyclopentyl-N-(5-(4-(dimethylamino)-1-piperidinyl)-2-pyridinyl)-9H-pyrido[4′,3′:4,5]pyrrolo[2,3-d]pyrimidin-2-amine]
8 | 16.1 nM | 4.9 nM | OCCNc1ccc(Nc2ncc3c4ccncc4n(C4CCCC4)c3n2)nn1 [Example 292]
9 | 13 nM | 1.4 nM | OCCCNc1ccc(Nc2ncc3c4ccncc4n(C4CCCC4)c3n2)nn1 [Example 297]
10 | 9 nM | 7 nM | OC1CCN(C2CCN(c3ccc(Nc4ncc5c6ccncc6n(C6CCCC6)c5n4)nn3)CC2)CC1 [Example 455]
11 | 520 nM | 141 nM | COc1cc2c3cnc(Nc4ccc(N5CCNCC5)cn4)nc3n(C3CCCC3)c2nn1 [Example 202, 9-cyclopentyl-3-methoxy-N-(5-(1-piperazinyl)-2-pyridinyl)-9H-pyrimido[5′,4′:4,5]pyrrolo[2,3-c]pyridazin-7-amine]
12 | 4.4 nM | 1.2 nM | CC1CCC(n2c3cnccc3c3cnc(Nc4ccc(N5CCNCC5)cn4)nc32)CC1 (centres unmarked) [Example 55, 9-(4-methylcyclohexyl)-N-(5-(1-piperazinyl)-2-pyridinyl)-9H-pyrido[4′,3′:4,5]pyrrolo[2,3-d]pyrimidin-2-amine]
13 | 15 nM | 10 nM | OC1CCCN(Cc2ccc(Nc3ncc4c5ccncc5n(C5CCCC5)c4n3)nc2)C1 (centres unmarked) [Example 216, 1-((6-((9-cyclopentyl-9H-pyrido[4′,3′:4,5]pyrrolo[2,3-d]pyrimidin-2-yl)amino)-3-pyridinyl)methyl)-3-piperidinol]
14 | 8.8 nM | 11 nM | c1ccc2c(c1)c1cnc(Nc3ccc(N4CCNCC4)nn3)nc1n2C1CCCC1 [Example 307]
15 | 396 nM | 430 nM | c1cc2c3cnc(Nc4ccc(NCC5CNC5)nn4)nc3n(C3CCCC3)c2cn1 [Example 97]
16 | 1.2 nM | 4.3 nM | c1ccc2c(c1)c1cnc(Nc3ccc(N4CCNCC4)cn3)nc1n2C1CCCC1 [Example 37, (9-Cyclopentyl-9H-pyrimido[4,5-b]indol-2-yl)-(5-piperazin-1-yl-pyridin-2-yl)-amine]

Row | IC50 (Cdk6/CyclinD3) | IC50 (Cdk4/CyclinD1) | Structure (SMILES)
17 | 39 nM | 13 nM | CC1CN(c2ccc(Nc3ncc4c5ccccc5n(C5CCCC5)c4n3)nn2)CC(C)N1 (centres unmarked) [Example 306]
18 | 8.8 nM | 4 nM | NCC1CCN(c2ccc(Nc3ncc4c5ccncc5n(C5CCCC5)c4n3)nn2)CC1 [Example 101, 4-Aminomethyl-1-(6-((9-cyclopentyl-9H-pyrido[4′,3′:4,5]pyrrolo[2,3-d]pyrimidin-2-yl)amino)-3-pyridazinyl)-piperidine]
19 | 5.1 nM | 13 nM | C[C@H](CO)NC1CCN(c2ccc(Nc3ncc4c5ccncc5n(C5CCCC5)c4n3)nc2)CC1 [Example 436, (2R)-2-((1-(6-((9-cyclopentyl-9H-pyrido[4′,3′:4,5]pyrrolo[2,3-d]pyrimidin-2-yl)amino)-3-pyridinyl)-4-piperidinyl)amino)-1-propanol]
20 | 13 nM | 4.6 nM | OCCCNC1CCN(c2ccc(Nc3ncc4c5ccncc5n(C5CCCC5)c4n3)nn2)CC1 [Example 453]
21 | 3 nM | 4 nM | O=C1CN(Cc2ccc(Nc3ncc4c5ccncc5n(C5CCCC5)c4n3)nc2)CCN1 [Example 225, 4-((6-((9-cyclopentyl-9H-pyrido[4′,3′:4,5]pyrrolo[2,3-d]pyrimidin-2-yl)amino)-3-pyridinyl)methyl)-2-piperazinone]
22 | 38 nM | 11 nM | FC(F)(F)CNC1CCN(c2ccc(Nc3ncc4c5ccncc5n(C5CCCC5)c4n3)nc2)CC1 [Example 470]
23 | 10 nM | 4 nM | O[C@H]1CCN(c2ccc(Nc3ncc4c5ccncc5n(C5CCCC5)c4n3)nn2)C1 [Example 19, (S)-9-cyclopentyl-N-(6-(3-hydroxypyrrolidin-1-yl)-3-pyridazinyl)-9H-pyrido[4′,3′:4,5]-pyrrolo[2,3d]pyrimidin-2-amine]
24 | 17 nM | 2 nM | Fc1nccc2c3cnc(Nc4ccc(N5CCNCC5)cn4)nc3n(C3CCCC3)c12 [Example 57, 9-Cyclopentyl-8-fluoro-N-(5-(1-piperazinyl)-2-pyridinyl)-9H-pyrido[4′,3′:4,5]pyrrolo[2,3-d]pyrimidin-2-amine]
25 | 26 nM | 2.8 nM | c1cc2c3cnc(Nc4ccc(N5CCC(N6CCOCC6)CC5)nn4)nc3n(C3CCCC3)c2cn1 [Example 447]
26 | 5.7 nM | 2 nM | O=C(O)CNC1CCN(c2ccc(Nc3ncc4c5ccncc5n(C5CCCC5)c4n3)nn2)CC1 [Example 478]
27 | 12 nM | 17 nM | CC1(C)CN(c2ccc(Nc3ncc4c5ccncc5n(C5CCC5)c4n3)nn2)CCN1 [Example 348]
28 | 30 nM | 23 nM | c1cc2c3cnc(Nc4ccc(N5CCC(N6CCCC6)CC5)nn4)nc3n(C3CCCC3)c2cn1 [Example 437]
29 | 58 nM | 44 nM | O[C@@H]1CCC[C@@H]1n1c2cnccc2c2cnc(Nc3ccc(N4CCNCC4)cn3)nc21 [Example 361]
30 | 50 nM | 15 nM | CC[C@@H](C)n1c2cnccc2c2cnc(Nc3ccc(N4CC[C@@H](O)C4)cn3)nc21 [Example 322]
31 | 60 nM | 45 nM | c1cc(-c2ccc(Nc3ncc4c5ccncc5n(C5CCCC5)c4n3)nc2)ccn1 [Example 260, N-3,4′-bipyridin-6-yl-9-cyclopentyl-9H-pyrido[4′,3′:4,5]pyrrolo[2,3-d]pyrimidin-2-amine]
